From the NIST ThermoML archive (doi:10.1021/acs.jced.5b00679) come the findings set out here.

Numbers after ± are expanded uncertainties.

The conditions of data set [1]: Crystal; DTA.
Data set [2] is described as follows: Molar enthalpy of transition or fusion. Particulars: Crystal; DSC.

`c1ccc2c3c([nH]c2c1)CCCC3` [2,3,4,9-tetrahydro-1H-carbazole]: the Normal melting temperature in data set [1] amounted to 118.2 ± 2 °C. The “Molar enthalpy of transition or fusion” value in data set [2] came out at 4.27 ± 0.1 kcal/mol.
In the same order, the values of `CC(C)n1c2ccccc2c2ccccc21` [9-(1-methylethyl)carbazole] are 120.8 ± 2 °C and 4.36 ± 0.184 kcal/mol.
For the molecule `CCn1c2c(c3c1CCCC3)CCCC2` [9-ethyl-2,3,4,5,6,7,8,9-octahydro-1H-carbazole], the Normal melting temperature in data set [1] came to 43 ± 2 °C. Also, the “Molar enthalpy of transition or fusion” value in data set [2] amounted to 4.92 ± 0.139 kcal/mol.
In the same order, the values of `CCn1c2c(c3ccccc31)CCCC2` [9-ethyl-2,3,4,9-tetrahydrocarbazole] are 9.2 ± 2 °C and 2.97 ± 0.0765 kcal/mol.
The like results for `CCn1c2ccccc2c2ccccc21` [9-ethylcarbazole] were, in that order, 69.2 ± 2 °C and 3.96 ± 0.12 kcal/mol.
`Cn1c2ccccc2c2ccccc21` [9-methyl-9H-carbazole]: the Normal melting temperature in data set [1] was 88 ± 2 °C. In data set [2], the “Molar enthalpy of transition or fusion” value is 3.93 ± 0.136 kcal/mol.
The like results for `c1ccc2c(c1)[nH]c1ccccc12` [9H-carbazole] were, in that order, 244.0 ± 2 °C and 6.62 ± 0.201 kcal/mol.
The like results for `CCCCn1c2ccccc2c2ccccc21` [N-butyl-9H-carbazole] were, in that order, 57.5 ± 2 °C and 5.45 ± 0.136 kcal/mol.
In the same order, the values of `CCCn1c2ccccc2c2ccccc21` [N-propyl-9H-carbazole] are 47.2 ± 2 °C and 4.68 ± 0.117 kcal/mol.
